Measured values as given in patent US20230201025A1, “PROCESS FOR FABRICATING A DENTAL APPLIANCE AND ACCOMPANYING USE CASES” (Bottmedical AG, priority 2020, published 2023).

Assays:
[1] = test system: Streptococcus mutans; assay: calorimetric measurement of suppression of bacterial growth (S. mutans); type: cell-based; conditions: single essential oil component at 0.1% in BHI
Description: (§1) Finally, additional calorimetric experiments were performed to measure the capability of different agents of suppressing the growth of bacteria such as Streptococcus mutans and Streptococcus mitis. The different agents 7 were applied as a solution containing a single essential oil component at a concentration of 0.1% in BHI. As figure of merits, the lag phase, defined as the postponement in time of the growth of the bacteria and measured in hours, and the growth rate (increase in number of bacteria/time), measured in J/h, of the Streptococcus populations were determined as follows: […]

[2] = test system: Streptococcus mitis; assay: calorimetric measurement of suppression of bacterial growth (S. mitis); type: cell-based; conditions: single essential oil component at 0.1% in BHI
Description: as §1

SMILES	growth rate (J/h) of S. mutans [1] [J/h]	lag phase (h) of S. mutans growth [1] [h]	growth rate (J/h) of S. mitis [2] [J/h]	lag phase (h) of S. mitis growth [2] [h]	growth rate (J/h) of S. mutans ([1]; listed as cinnamaldehyde)
CC12CCC(CC1)C(C)(C)O2 [Eucalyptol]	1.3	5	0.14	2	
C=C(C)[C@H]1CC=C(C)CC1 [Limonene]			0.11	3	
O=CC=Cc1ccccc1 [cinnam aldehyde, cinnamaldehyde]	0	>24	0.15	6.2	without any measurable growth
COC(=O)c1ccccc1O [methyl salicylate]	1.2	5	0.4	23	
C/C=C/c1ccc(OC)cc1 [trans-anethole]	0.03	>24	0.13	6.4	
